Source: PubChem BioAssay (NCI)
Values joined by “and” are separate entries in the source; they are usually repeats but may differ in a detail not shown here. Equal values may be shown once.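 Five compound concentrations were applied to cells in 96-well plates for 48 hours; endpoints were derived by simple linear interpolation of the resulting dose-response curve. GI50 = concentration required for 50% inhibition of growth. At the TGI there is no net growth.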

What was measured:
Assay in all cases: NCI tumour cell line growth inhibition, 48 h
DU-145 prostate = system: DU-145 prostate
HCC-2998 colon = system: HCC-2998 colon
HOP-62 NSCLC = system: HOP-62 NSCLC
K-562 leukemia = system: K-562 leukemia
LOX IMVI melanoma = system: LOX IMVI melanoma
MOLT-4 leukemia = system: MOLT-4 leukemia
NCI-H460 lung = system: NCI-H460 lung
PC-3 prostate = system: PC-3 prostate
SK-MEL-2 melanoma = system: SK-MEL-2 melanoma
UACC-257 melanoma = system: UACC-257 melanoma

SMILES | GI50 (DU-145 prostate) | TGI (DU-145 prostate) | GI50 (HCC-2998 colon) | TGI (HCC-2998 colon) | GI50 (HOP-62 NSCLC) | TGI (HOP-62 NSCLC) | GI50 (K-562 leukemia) | TGI (K-562 leukemia) | GI50 (LOX IMVI melanoma) | TGI (LOX IMVI melanoma) | GI50 (MOLT-4 leukemia) | TGI (MOLT-4 leukemia) | GI50 (NCI-H460 lung) | TGI (NCI-H460 lung) | GI50 (PC-3 prostate) | TGI (PC-3 prostate) | GI50 (SK-MEL-2 melanoma) | TGI (SK-MEL-2 melanoma) | GI50 (UACC-257 melanoma) | TGI (UACC-257 melanoma)
C#CCC(Cc1cnc2nc(N)nc(N)c2n1)c1ccc(C(=O)N[C@@H](CCC(=O)O)C(=O)O)cc1 (some centres not stated) | < 0.01 µM | > 100 µM | 0.0103 µM | > 100 µM | < 0.01 µM | > 100 µM | < 0.01 µM | > 100 µM | < 0.01 µM | > 100 µM | < 0.01 µM | > 100 µM | < 0.01 µM | > 100 µM | < 0.01 µM | > 100 µM | > 100 µM | > 100 µM | 0.0243 µM | > 100 µM
Nc1c(Br)cc(Br)c2c1[nH]c(=O)c1ccccc12 | 23.6 µM | > 100 µM | > 100 µM | > 100 µM | 2.56 µM | 6.39 µM | 37.3 µM | > 100 µM | 20.5 µM | > 100 µM | 18.4 µM | > 63.8 µM | 3.33 µM | 14.6 µM | 14.4 µM | > 100 µM | 20.7 µM | 60.3 µM | 21.7 µM | > 100 µM
CCCc1cc2c(=O)c(C(=O)OC)c[nH]c2cc1N(CC)CC | 20.2 µM | 49.6 µM | 76.3 µM | > 100 µM | 20.4 µM | 37.9 µM | 80.5 µM | > 100 µM | 25.8 µM | 77.9 µM | > 100 µM | > 100 µM | 31.6 µM | > 100 µM | 23.3 µM | > 100 µM | 36.1 µM | 97.8 µM | > 100 µM | > 100 µM
O=C1NC(O)C(c2c[nH]c3ccccc23)=C1c1c[nH]c2ccccc12 (configuration not stated) | > 25 µM | > 25 µM | > 25 µM | > 25 µM | > 25 µM | > 25 µM | > 21.9 µM | > 25 µM | > 22.5 µM | > 25 µM | > 25 µM | > 25 µM | > 25 µM | > 25 µM | 24.8 µM | > 25 µM | > 25 µM | > 25 µM | > 25 µM | > 25 µM
CC(C)[C@H](CO)Nc1nc(Nc2ccc(C(=O)NCCNS(=O)(=O)c3cccc4c(N(C)C)cccc34)c(Cl)c2)c2ncn(C(C)C)c2n1 | 4.41 µM | > 100 µM | 2.9 µM | > 100 µM | 3.69 µM | > 100 µM | 3.92 µM | > 100 µM | 2.71 µM | > 100 µM | 3.51 µM | > 100 µM | 3.45 µM | > 100 µM | 3.56 µM | > 100 µM | 2.67 µM | 7.73 µM | 2.66 µM | > 100 µM
NC(N)=N/N=C\c1cccc(OCc2ccccc2)c1 | 11.4 µM | 23.9 µM | 1.81 µM | 3.54 µM | 5.16 µM | 19.1 µM | 3.87 µM | 16.1 µM | 1.78 µM | 3.4 µM | 11.1 µM | 27.8 µM | 2.55 µM | 7.79 µM | 11.2 µM | 25.1 µM | 3.31 µM | 13 µM | 1.82 µM | 4.07 µM
O=C(Nc1cc(Cl)cc(Cl)c1)c1ccc(NC2=C(Cl)C(=O)N(Cc3ccc(Cl)cc3Cl)C2=O)cc1 | 20.1 µM | 50.7 µM | 15 µM | 36.9 µM | 34.1 µM | > 100 µM | 1.33 µM | 10.7 µM | 1.5 µM | 4.19 µM | 0.249 µM | 1.53 µM | 16.6 µM | > 100 µM | 13.1 µM | 25.8 µM | 23.5 µM | 43.9 µM | 24.8 µM | 53.1 µM
CCOC(=O)N1CCc2cc(OC)c(OC)c3c2c1cc1cc(OC)c(OC)cc13 | – | > 100 µM | – | 55.6 µM | – | > 83.6 µM | – | > 75.9 µM | – | 52.3 µM | – | > 100 µM | – | 28.5 µM | – | > 100 µM | – | > 51.8 µM | – | > 81.7 µM
CCOc1ccc(-c2nonc2NC(=O)c2cccc(C)c2)cc1OCC | > 100 µM | > 100 µM | > 100 µM | > 100 µM | > 100 µM | > 100 µM | > 100 µM | > 100 µM | > 100 µM | > 100 µM | > 100 µM | > 100 µM | > 100 µM | > 100 µM | > 100 µM | > 100 µM | > 100 µM | > 100 µM | > 100 µM | > 100 µM
COc1ccc(-n2nnnc2-c2c[nH]c3c(F)cc(F)cc23)cc1 | > 100 µM | > 100 µM | > 100 µM | > 100 µM | 37.5 µM | > 100 µM | > 100 µM | > 100 µM | 86.6 µM | > 100 µM | > 100 µM | > 100 µM | > 100 µM | > 100 µM | > 100 µM | > 100 µM | > 100 µM | > 100 µM | > 100 µM | > 100 µM
COC(=O)c1c2c(c(C)[n+]([O-])c1C)C(=O)C=C(NCc1ccc(F)c(Cl)c1)C2=O | 0.566 µM | 2.07 µM | 0.187 µM | 1.41 µM | 0.718 µM | 2.33 µM | 0.0315 µM | 5.27 µM | 0.0258 µM | 1.35 µM | 0.404 µM | 2.19 µM | 0.264 µM | 1.4 µM | 0.245 µM | 4.02 µM | 0.677 µM | 2.5 µM | 0.171 µM | 0.64 µM
COc1ccc(/C=C/C(=O)c2ccc(SC)cc2)cc1OC | 13.4 µM | 30.9 µM | 3.27 µM | 12.1 µM | 18.8 µM | 42.2 µM | 4.09 µM | 33.8 µM | 4.12 µM | 15.5 µM | 22.4 µM | > 100 µM | 70.6 µM | > 100 µM | 11.5 µM | 25.6 µM | 19.4 µM | 42.6 µM | 17 µM | 30.9 µM
COc1cc2c3c(n(CCCN)c(=O)c2cc1OC)-c1cc2c(cc1/C3=C\CCN)OCO2 | 2.52 µM | 12.7 µM | 0.382 µM | 1.77 µM | 5.95 µM | 36.7 µM | 2.17 µM | > 40.4 µM | 1.7 µM | – | 0.0601 µM | – | 1.06 µM | 7.53 µM | 4.43 µM | 17.8 µM | 6.57 µM | 14.6 µM | 8.29 µM | 19.2 µM
N[C@@H]1CCCC[C@H]1N.O=C([O-])C(=O)[O-].[Pt+4] | 6.17 µM | > 100 µM | 0.618 µM | 10 µM | 46.2 µM | > 100 µM | 0.854 µM | > 95.3 µM | 1.13 µM | > 100 µM | 0.137 µM | 15.6 µM | 0.435 µM | 38.3 µM | 17.9 µM | > 100 µM | 5.15 µM | 52.9 µM | 10.7 µM | > 81.1 µM
Ic1ccccc1-c1ccccc1 | > 100 µM | > 100 µM | > 100 µM | > 100 µM | > 100 µM | > 100 µM | > 100 µM | > 100 µM | 42.4 µM | > 100 µM | 26.8 µM | > 100 µM | > 100 µM | > 100 µM | > 100 µM | > 100 µM | 76 µM | > 100 µM | > 100 µM | > 100 µM
C=C(CN1C(=O)[C@H]2CCCN2C(=O)c2ccccc21)c1ccc(C(=O)O)cc1 | > 100 µM | > 100 µM | > 100 µM | > 100 µM | > 100 µM | > 100 µM | > 100 µM | > 100 µM | > 100 µM | > 100 µM | > 100 µM | > 100 µM | > 100 µM | > 100 µM | > 100 µM | > 100 µM | > 100 µM | > 100 µM | > 100 µM | > 100 µM
Cc1cc2nc3c4cc(N)ccc4n(CCN(C)C)c3nc2cc1C | 1.11 µM | 11.7 µM | 0.876 µM | 3.85 µM | 0.687 µM | 14.7 µM | 0.421 µM | 8.98 µM | 0.461 µM | 3.27 µM | 0.376 µM | > 31.9 µM | 0.402 µM | 2.95 µM | 0.935 µM | 8.67 µM | 1.34 µM | 3.89 µM | 1.21 µM | 5.14 µM
CC1(C)N=C(N)N=C(N)N1c1ccc(OCCCCOc2ccc(S(=O)(=O)F)cc2)c(Cl)c1 | 0.194 µM | 16 µM | 0.485 µM | 18.2 µM | 0.269 µM | 12.9 µM | 0.0597 µM | 15.8 µM | 0.0761 µM | 14.3 µM | 0.135 µM | 16.3 µM | 0.0382 µM | 11.8 µM | 0.064 µM | 11 µM | 2.89 µM | 22.1 µM | 0.581 µM | 14.1 µM
COc1ncc(-c2ccc3nccc(-c4ccnnc4)c3c2)cc1NS(=O)(=O)c1ccc(F)cc1F | 0.0119 µM and 0.0164 µM | > 10 µM and 13 µM | 0.00997 µM and 0.0133 µM | 0.275 µM and 0.572 µM | 0.00803 µM and < 0.0122 µM | 1.93 µM and 3.02 µM | – | > 100 µM | 0.00758 µM and < 0.0106 µM | 1.12 µM and 1.26 µM | 0.00505 µM and < 0.01 µM | 0.801 µM and 0.579 µM | 0.00406 µM and < 0.01 µM | > 10 µM and 15.3 µM | 0.00432 µM and < 0.01 µM | 2.37 µM and 4.46 µM | 0.0194 µM and < 0.01 µM | 0.227 µM and 0.15 µM | 0.00627 µM and < 0.01 µM | 0.378 µM and 0.0615 µM
